We go through four molecules from patent publication US9284299B2, “Substituted 1H-indazol-1-ol analogs as inhibitors of beta catenin/Tcf protein-protein interactions” (UNIVERSITY OF UTAH RESEARCH FOUNDATION, priority 2012, dated 2016).

Test [1] deals with β-catenin/Tcf4 interaction (Homo sapiens (Human), UniProt P35222). Description: Fluorescence polarization (FP) competitive inhibition assay, β-catenin/Tcf4. The format is binding. Here is the method:
Experiments were performed in 96-well Microfluor 2 black plates (Waltham, Mass.), and the samples were read by a Synergy 2 plate reader (Biotek, Winooski, Vt.). […] The final reaction volume is 100 μL.
In the foregoing equation, mP, is the signal of the positive control; mPbound is the signal of the negative control; and mP is the signal of the tested inhibitor compound.

The test system of test [2] is HCT 116 colon cancer cell line. In words: MTS-based cell proliferation inhibition assay. Conditions: 72 h, dose-dependent (FIG. 2).
Experimental: The cell proliferation agent, 3-(4,5-dimethylthiazol-2-yl)-5-(3-carboxymethoxyphenyl)-2-(4-sulfophenyl)-2H-tetrazolium (“MTS”), was purchased from Promega (Madison, Wis.) and phenazinemethosulfate from Sigma-Aldrich (St. Louis, Mo.). Cultured cell lines were seeded in 96-well plates at 3×10^3 cells/well, maintained overnight at 37° C., and incubated in the presence of the tested compounds at various concentrations. […] Cells were incubated in 10 μL of this solution at 37° C. for 3 h and the UV absorption at 490 nm was measured. Vehicle-treated cells was used as the negative control. The IC50 values and the Hill slopes were generated using Graphpad Prism 5.0. All data were expressed as mean±SD.
[3] abbreviates: Table 2, mean ± standard deviation (n=3), read-out: Ki FP.

Read-outs that look alike come from different tables or passages of the source.

Sequence of β-catenin/Tcf4 interaction (P35222 138-686): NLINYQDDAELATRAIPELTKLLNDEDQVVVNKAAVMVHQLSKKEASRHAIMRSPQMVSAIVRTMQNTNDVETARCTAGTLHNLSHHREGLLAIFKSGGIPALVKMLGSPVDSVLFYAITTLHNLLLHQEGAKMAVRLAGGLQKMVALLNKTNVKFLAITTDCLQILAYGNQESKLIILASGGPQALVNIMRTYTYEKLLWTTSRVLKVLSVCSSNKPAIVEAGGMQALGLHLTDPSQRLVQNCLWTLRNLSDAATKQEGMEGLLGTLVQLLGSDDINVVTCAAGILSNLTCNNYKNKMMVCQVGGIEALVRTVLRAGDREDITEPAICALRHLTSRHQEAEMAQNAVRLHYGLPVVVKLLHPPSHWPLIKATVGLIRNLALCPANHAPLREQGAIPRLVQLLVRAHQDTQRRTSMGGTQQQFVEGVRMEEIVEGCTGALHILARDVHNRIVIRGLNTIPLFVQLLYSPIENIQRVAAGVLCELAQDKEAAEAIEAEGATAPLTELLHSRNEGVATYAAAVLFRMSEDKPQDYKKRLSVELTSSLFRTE

With `O=c1[nH]c(Cc2ccc3c(c2)nnn3O)no1` [Compound 2, 3-((1-HYDROXY-1H-BENZO[D][1,2,3]TRIAZOL-5-YL)METHYL)-1,2,4-OXADIAZOL-5(4H)-ONE], the Ki in test [1] (setting [3]) amounted to 165.4 ± 1.45 µM.
Take “5-(2-(2H-TETRAZOL-5-YL)ETHYL)-1H-INDAZOL-1-OL [Compound 12]”: the “Inhibition of proliferation of colon cancer cell line HCT116” value in test [2] is given as “inhibit the proliferation”.
Regarding `COc1c(C[C@@H](C)OC(=O)Oc2ccc(O)cc2)c2c3c(C[C@@H](C)OC(=O)c4ccccc4)c(OC)c(=O)c4c(O)cc(OC)c(c5c(OC)cc(O)c(c1=O)c52)c43` [PKF115-584, reference compound], the Ki in test [1] (setting [3]) was 17.8 ± 2.13 µM; in test [1] (Table IV, FP assay, read-out: Ki ± SD β-catenin/Tcf4), 17.8 ± 2.13 µM.
Take `O=c1[nH]c(Cc2ccc3c(cnn3O)c2)no1` [Compound 10, 3-((1-HYDROXY-1H-INDAZOL-5-YL)METHYL)-1,2,4-OXADIAZOL-5(4H)-ONE]: the Ki in test [1] (setting [3]) was found to be 125 ± 1.3 µM.
